Laboratory results reported in US8669088B2, “Enzyme associated with equol synthesis” (Otsuka Pharmaceutical Co., Ltd., priority 2007, dated 2014).

How the values were obtained:
[1] = test system: dihydrodaidzein; assay: Tetrahydrodaidzein biosynthesis activity in centrifuged supernatant of disrupted cell material and NADH or NADPH dependency (Example B2); assay type: biochemical, Lactococcus 20-92 strain; settings: centrifuged supernatant of disrupted cells; 37° C., 2 hours; HPLC (FIG. 11)
Protocol: The frozen cells were thawed and centrifuged at 4° C. for 15 minutes (5,000×G). The pellet was used in the test below. First, the pellet (wet weight 2.7 g) was suspended in 10 ml of a 0.1 M phosphate-potassium solution containing 1 mM PMSF and 5 mM sodium hydrosulfite. After preheating at 37° C. for 5 minutes, lysozyme was added in an amount of 100 mg per gram of the pellet (wet weight) to cause a reaction at 37° C. for 1.5 hours. Then, an equivalent amount of 0.1 M dipotassium phosphate solution was added to the reaction mixture, and the mixture was vigorously agitated with a vortex mixer after adding zirconia-silica beads (3 ml). The cells were then disrupted with a sonicator (Branson Sonifier Cell Disruptor 200) (3 cycles of a 5-minute sonication and a 2-minute rest). The disrupted cell suspension was centrifuged at about 10,000×G for 15 minutes to obtain a supernatant, which was then used as an enzyme source. An enzyme reaction mixture of the composition below was prepared, and was incubated at 37° C. for 2 hours. After incubation, 5 mL of ethyl acetate was added to the enzyme reaction product for extraction. Then, the product was dried to prepare a sample for HPLC analysis. [table]

[2] = test system: daidzein; assay: Dihydrodaidzein biosynthesis activity in centrifuged supernatant of disrupted cell material and coenzyme dependency (Example A1); assay type: biochemical, Lactococcus 20-92 strain; settings: supernatant of disrupted cells; 37° C., 2 hour; HPLC (FIG. 1)
Protocol: The frozen cells (67 mL bottle×2) were thawed, and centrifuged at 4° C. at 8,000 rpm for 10 minutes. The pellet was used in the test below. First, the pellet was suspended in 2 ml of a 0.1 M phosphate-potassium solution containing 1 mM PMSF (Wako Pure Chemical Industries, Ltd.), 2 mM DTT (Wako Pure Chemical Industries, Ltd.) and 5 mM sodium hydrosulfite (Wako Pure Chemical Industries, Ltd.). The suspension was supplied to two 2 ml tubes with screw caps (Assist) and pre-supplemented with […] zirconia/silica beads (BioSpec Products, Inc.). The cells were disrupted using FastPrep® FP100A (Thermo ELECTRON CORPORATION) (6500 rpm, 10 seconds, ice cooling×8). The resulting liquid was centrifuged to obtain supernatant. The suspension of disrupted cell was centrifuged at about 10,000 rpm at 4° C. for 10 minutes to obtain a supernatant, which was then diluted to 4.5 mL with 0.1 M potassium phosphate solution containing 1 mM PMSF, 2 mM DTT and 5 mM sodium hydrosulfite. This was used as an enzyme source.
An enzyme reaction mixture of the composition below was prepared, and the mixture was incubated at 37° C. for 2 hour. After incubation, 3 mL of ethyl acetate was added to the enzyme reaction mixture for extraction. After drying, the extract was dissolved by the mobile phase (eluent). The dissolved product was analyzed by HPLC. […]

[3] = test system: dihydrodaidzein synthesis enzyme gene; assay: Induction of expression of dihydrodaidzein synthesis enzyme gene by daidzein, RT-PCR (Example A7); assay type: cell-based, Lactococcus 20-92 strain; settings: 10 mg/L daidzein in modified GAM broth, eight hours, 37° C., anaerobic; RT-PCR (FIG. 6)
Protocol: Sealed Lactococcus 20-92 strain kept at 4° C. was incubated for eight hours in a modified GAM broth culture medium, that contains 10 mg/L daidzein (Funakoshi Co., Ltd.) or no daidzein, at 37° C. under an anaerobic condition. 25 mL of the culture solution was transferred to a 50 mL tube, and centrifuged for ten minutes at 3500 rpm, 4° C. The culture medium was removed by decantation and cells were collected. The collected cells were immediately frozen by liquid nitrogen. Then, the entire RNA was extracted and purified using 1 mL of TRIzol solution (Invitrogen) according to the instruction. The purified entire RNA was processed by DNase I (Invitrogen) to remove the genome DNA, and used for synthesis of first-strand cDNA.
From 2 μg of the entire RNA thus processed by DNaseI, the first-strand cDNA (reverse transcription) was synthesized using SuperScript® First-Strand Synthesis System for RT-PCR (Invitrogen). The synthesis of the first-strand cDNA was carried out using Random Hexamer mix as an extension primer according to the instruction. […] The final reaction liquid was used as a template for RT-PCR.
The dihydrodaidzein synthesis enzyme gene was amplified through RT-PCR using the four final reaction products as detailed in (2) of the present Example as templates. The expression amounts were compared with each other. […]

NC(=O)C1=CN([C@@H]2O[C@H](COP(=O)(O)OP(=O)(O)OC[C@H]3O[C@@H](n4cnc5c(N)ncnc54)[C@H](O)[C@@H]3O)[C@@H](O)[C@H]2O)C=CC1 [NADH]
coenzyme dependency of the conversion of dihydrodaidzein into tetrahydrodaidzein [1]: dependent
coenzyme dependency of the conversion of daidzein into dihydrodaidzein [2]: dependent

O=c1c(-c2ccc(O)cc2)coc2cc(O)ccc12 [daidzein, 4′,7-dihydroxy isoflavone]
expression of mRNA of dihydrodaidzein synthesis enzyme gene [3]: induced the expression of mRNA
